Test [1] concerns P388. As to the kind of experiment: In vivo antitumor activity against mouse P388 cells at 5 mg/kg relative to control. It is filed as functional.
The test system of test [2] is P388. In words: In vivo antitumor activity against mouse P388 cells at 2 mg/kg relative to control. It is filed as functional.

Consider `CCOC(=O)CC1(O)C=CC(=O)C=C1`, for which, in the test with P388 [1], the T/C stood at 120%. Take `COC(=O)CC1(O)C=CC(=O)C=C1` [JACARANONE]: in the test with P388 [2], the T/C is listed as 165%.

(Values after ChEMBL document CHEMBL1151351, “Antineoplastic Agents. 67. Senecio fendleri Gray” (1980).)
